Experimental data taken from patent US20130225629A1, “TARGETING PI3K/MTOR SIGNALLING AND NEUTROPHIL RECRUITMENT FOR TREATMENT OF ENTERITIS” (THE UNIVERSITY OF NORTH CAROLINA AT CHAPEL HILL, priority 2012, published 2013).

Assays:
Type in all cases: in vivo, mice
[1] = tested on: II1β mRNA; test: Real-time RT-PCR of colonic II1β mRNA; settings: AS252424 vs vehicle treated infected mice
Protocol: Total RNA from colonic tissue was extracted using TRIzol® kit (Invitrogen, Carlsbad, Calif., United States of America). Complementary DNA was prepared using M-MLV (Invitrogen). Messenger RNA levels of proinflammatory genes were determined using SYBR® Green PCR Master Mix (Applied Biosystems, Carlsbad, Calif., United States of America) on an ABI 7900HT Fast Real-Time PCR System and normalized to Gapdh. The polymerase chain reactions were performed according to the manufacturer's recommendation. The following gene primers were used: Gapdh_forward: 5′-[…]-3′ (SEQ ID NO: 2), Gapdh_reverse: 5′-[…]-3′ (SEQ ID NO: 3), II-1_forward: 5′-[…]-3′ (SEQ ID NO: 4), II-1_reverse: 5′-[…]-3′ (SEQ ID NO: 5), Cxcl2_forward: 5′-[…]-3′ (SEQ ID NO: 6), Cxcl2_reverse: 5′-[…]-3′ (SEQ ID NO: 7), II-17a_forward: 5′-[…]-3′ (SEQ ID NO: 8), II-17a_reverse: 5′-[…]-3′ (SEQ ID NO: 9), II12p40_forward: […] (SEQ ID NO: 10), II12p40_reverse: […] (SEQ ID NO: 11), Tnf forward: […] (SEQ ID NO: 12), Tnf reverse: […] (SEQ ID NO: 13).
Total RNA from intestinal tissues was extracted using TRIzol® kit (Invitrogen, Carlsbad, Calif., United States of America) following the manufacture's guide. cDNA was reverse-transcribed using M-MLV (Invitrogen). Proinflammatory 111β, Cxcl2, II17a and Tnfα mRNA expression levels were measured using SYBR® Green PCR Master mix (Applied Biosystems, Carlsbad, Calif., United States of America) on an ABI 7900HT Fast Real-Time PCR System and normalized to Gapdh. The PCR primers used were reported previously. (Sun et al., 2012). The PCR reactions were performed for 40 cycles according to the manufacturer's recommendation, and RNA fold changes were calculated using the ΔΔct method.

[2] = tested on: C. jejuni
Description: All animal protocols were approved by the Institutional Animal Care and Use Committee of the University of North Carolina at Chapel Hill (Chapel Hill, N.C., United States of America). Germ-free 8 to 12 week old II10^−/−; NF-κBEGFP (129/SvEv; C57BL/6 mixed background) mice were transferred from germ-free isolators and immediately gavaged with 10^9 C. jejuni cfu/mouse (strain 81-176 (Korlath et al., 1985)). Mice were then housed under Specific Pathogen-Free (SPF) conditions and sacrificed at 5 or 12 days. Germ-free II10^−/−; NF-κB^EGFP mice were also gavaged with 10^7 Salmonella typhimurium (S. typhimurium strain CA32) cfu/mouse for 2 days or 10^7 Escherichia coli (E. coli strain NC 101) cfu/mouse for 12 days. Conventionally-derived II10^−/−; NF-κB^EGFP mice were put on an antibiotic cocktail (streptomycin 2 g/L, gentamycin 0.5 g/L, bacteriocin 1 g/L and ciprofloxacin 0.125 g/L) in water for 7 days and antibiotics withdrawn 24 hours prior to infection. The mice were then gavaged with 10^9 C. jejuni cfu/mouse for 14 days. To inhibit mTOR signaling, mice were injected daily intraperitoneally (i.p.) with rapamycin (1.5 mg/kg) (Fisher Scientific, Hampton, N.H., United States of America). At the end of the experiment, mice were euthanized using CO2 intoxication. Colon, mesenteric lymph nodes (MLN) and spleen were collected for further processing RNA, protein or C. jejuni culture on Campylobacter selective blood plates (Remel, Thermo Scientific, Hampton, N.H., United States of America) for 48 h at 37° C. using the GasPak system (Becton Dickinson, Franklin Lakes, N.J., United States of America). […] Colons were fixed in 10% buffered formalin (Fisher Scientific, Hampton, N.H., United States of America) overnight, paraffin-embedded, sectioned, and stained with H&E for histological evaluation. Images were acquired using a DP71 camera and DP Controller 3.1.1.276 (Olympus, Center Valley, Pa., United States of America). Intestinal inflammation was scored by evaluating the degree of lamina propria immune cell infiltration, goblet cell depletion, architectural distortion, as well as crypt hyperplasia, ulceration, and abscesses using a score from 0-4. (Lippert et al., 2009). Cecal and colonic inflammation induced by S. typhimurium was evaluated using a score from 0-13 as described. (Hapfelmeier et al., 2005).
MLN and spleen were aseptically resected. Colon tissue was opened, resected and washed three times in sterile PBS. […] C. jejuni colonies were counted and data presented as colony forming unit (cfu)/g tissue.

[3] = tested on: neutrophils (MPO); test: Myeloperoxidase (MPO) immunohistochemistry of colon, neutrophil infiltration; settings: in the presence of AS252424
Protocol: Deparaffinized colon sections were treated with 3% H2O2 for 10 minutes to quench endogenous peroxidases. Antigen retrieval was performed using microwave heating for 10 min in 10 mM citrate buffer pH 6.0. Sections were blocked in 5% goat serum TBS-T for 1 hour. The slides were incubated overnight at 4° C. with an anti-MPO antibody (1:400) (Thermo Scientific, Hampton, N.H., United States of America). Secondary biotinylated antibody was diluted at 1:1000 with the VECTASTAIN® ABC Elite Kit (Vector Laboratories, Inc., Burlingame, Calif., United States of America). Visualization was performed using DAB chromogen (Dako, Inc., Carpinteria, Calif., United States of America). Finally, sections were counterstained with hematoxylin for 5 seconds. Sections were imaged at the OLYMPUS® microscope using DP 71 camera and DP Controller 3.1.1.276 (Olympus, Center Valley, Pa., United States of America).
Neutrophils in intestinal tissue were detected using anti-myeloperoxidase (MPO) IHC as described previously (Sun et al., 2012). Briefly, intestinal tissue sections were deparaffinized, blocked and incubated with an anti-MPO antibody (1:400; Thermo Scientific, Hampton, N.H., United States of America) overnight. […]

Structure (SMILES): O=C1NC(=O)/C(=C/c2ccc(-c3ccc(F)cc3O)o2)S1 [AS252424]
- block of C. jejuni-induced I11β mRNA accumulation [1]: 77%
- levels of viable C. jejuni in the spleen ([2]; AS252424 vs infected vehicle-treated mice): strongly reduced
- decrease of viable C. jejuni in MLN ([2]; mouse, in vivo): 90%
- decrease of viable C. jejuni in colon ([2]; mouse, in vivo): 97%
- C. jejuni-induced neutrophil infiltration into colonic tissues (MPO staining) [3]: strongly reduced
